Legend:
IL-17 = IL-17 secretion by ELISA in TNFα-induced mouse splenocytes; type: cell-based; settings: TNFα 20 nM, 24 hours
Experimental: Inflammation was induced by treating mouse splenocytes with the inflammatory cytokine TNFα, and the secretion amounts of the inflammatory cytokines IL-17, IL-1B, and IFNγ were confirmed. IL-17 corresponds to a pro-inflammatory cytokine, and the descriptions of IL-1β and IFNγ are the same as above.
Mouse splenocytes were dispensed into a 24-well plate at a concentration of 1×10^7 cells/well and cultured until the next day. The medium was replaced with serum-free medium, and after 4 hours, the cells were treated with TNFα and the peptide of the present invention and then cultured again for another 24 hours. In order to induce inflammation, the cells were treated with TNFα at 20 nM, and the peptide at 5 μM and 50 μM, respectively. The mouse splenocytes in the group in which inflammation was not induced due to untreatment with TNFα (NON); the negative control group in which the cells were treated with TNFα but not treated with the peptide (NC); and the group in which the cells were treated with TNFα along with the peptide of the present invention at the same concentration as above, respectively, were reacted as described above and the cell cultures were recovered. […]

Cox2 [1] = test: Cox2 protein level by Western blot in TNFα-induced HaCaT cells; type: cell-based, human; settings: TNFα 20 nM, peptide at 5 μM and 50 μM, 24 hours, compared to group not treated with TNFα
Experimental: In order to confirm the anti-inflammatory effect of treatment with the peptides of the present invention having the amino acid sequence of SEQ ID NO: 1, inflammation was induced in HaCaT cells, which are human keratinocytes, and the expression level of Cox2 protein was confirmed. In order to induce inflammation, the cells were treated with TNFα, which is an inflammation-inducing cytokine, and since Cox2 is an enzyme involved in the synthesis of prostaglandins corresponding to an inflammation-related protein, it is possible to confirm whether inflammation is inhibited by measuring the expression level of Cox2.
HaCaT cells were dispensed into a 24-well plate at a concentration of 3× 10^5 cells/well and cultured until the next day. The medium was replaced with serum-free medium, and after 4 hours, the cells were treated with TNFα and the peptide of the present invention and cultured again for another 24 hours. In order to induce inflammation, the cells were treated with TNFα at 20 nM, and treated with the peptide at 5 μM and 50 μM, respectively. […] In order to perform Western blotting, the amount of Cox2 protein was measured using an anti-Cox2 antibody (Cell Signaling Technology, USA). […]

IL-6 = IL-6 mRNA level by RT-PCR in LPS-induced mouse splenocytes; type: cell-based; settings: LPS 2 μg/mL, peptide at 5 μM and 50 μM, 24 hours, compared to group not treated with the peptide
Experimental: Inflammation was induced in mouse splenocytes, and the expression levels of TNFα, and IL-6 genes, which is the inflammatory cytokines were confirmed. In order to induce inflammation, the cells were treated with LPS, an inflammation-inducing antigen, and since TNFα corresponds to a signaling protein associated with inflammation, and IL-6 corresponds to a cytokine that promotes inflammation, the degree of inflammation can be confirmed by measuring the expression levels of TNFα and IL-6 genes.
Mouse splenocytes were dispensed into a 24-well plate at a concentration of 1×10^7 cells/well and cultured until the next day. The medium was replaced with serum-free medium, and after 3 hours, the cells were treated with LPS and the peptide of the present invention and then cultured again for another 24 hours. In order to induce inflammation, the cells were treated with LPS at 2 μg/mL, and the peptide at […] and 50 μM, respectively. […] After quantifying the amount of isolated RNA, cDNA was synthesized using a cDNA synthesis kit (Intron, Korea), PCR was performed using a PCR premix (Intron, Korea) and primers for TNFα, and IL-6. […]

Cox2 [2] = test: Cox2 protein level by Western blot in HaCaT cells induced with LPS, TGFβ and IL-23; type: cell-based, human; settings: IL-23 and LPS, peptide at 5 μM and 50 μM, 24 hours, compared to group not treated with the peptide
Experimental: In order to further confirm the anti-inflammatory effect of the peptide treatment of the present invention in addition to the results of Experimental Example 1, HaCaT cells were treated with Th17 (type 17), which is an inflammation-inducing substance, and the expression levels of inflammation-inducing markers iNos and Cox2 were confirmed. As the inflammation-inducing substances, the cells were treated with LPS, TGFβ, and IL-23, and since iNos is an enzyme involved in the production of nitric oxide (NO), which is an inflammation-related protein induced by LPS, etc., it is possible to confirm whether inflammation is inhibited by measuring the expression levels of iNos and Cox2.
HaCaT cells were dispensed into a 24-well plate at a concentration of 3× 10^5 cells/well and cultured until the next day. The medium was replaced with serum-free medium, and after 4 hours, the cells were treated with TGFβ, IL-23, and LPS, which are Th17 type inflammation-inducing cytokines, and then with the peptide of the present invention and cultured again for another 24 hours. […] In order to perform Western blotting, the amounts of iNos and Cox2 proteins were measured using an anti-iNos antibody and an anti-Cox2 antibody (Cell Signaling Technology, USA). […]

In the case of TWNS [peptide of the present invention], the “secretion amount of IL-17” value (IL-17; peptide at 5 μM) is reported as “slightly increased”, the “secretion amount of IL-17” value (IL-17; peptide at 50 μM) is reported as “decreased” and the “expression level of Cox2 protein” value (Cox2 [1]) is reported as “decreased”. The “mRNA expression level of IL-6” value (IL-6) was “decreased” and the “expression level of Cox2 protein” value (Cox2 [2]) was “decreased”.
